Source: patent publication US20060241073A1, “Means and methods for counteracting fatty acid accumulation” (priority 2005, published 2006)
Like-named read-outs stand apart in the source and are kept apart here.

What was measured:
[1] = tested on: phytanic acid omega-hydroxylase (cytochrome P450) of rat liver microsomes; experiment: Phytanic acid omega-hydroxylation in rat liver microsomes (formation of omega-hydroxyphytanic acid, GC/MS); format: biochemical; conditions: for effect on the formation of omega-hydroxyphytanic acid: different concentrations of imidazole derivatives (FIG. 4A)
Experimental: (§1) To this end, Male Wistar rats fed a standard laboratory diet, were fasted overnight before sacrifice and removal of the liver. The livers were rapidly chilled and washed several times in buffer containing 250 mM sucrose, 0.5 mM EDTA, 2 mM MOPS/KOH (final pH 7.4). Subsequently, the livers were minced and homogenized with a Potter S homogenizer (B. Braun, Germany) with a teflon pestle at 500 rpm (5 strokes), followed by centrifugation of the homogenate for 10 min at 550×g. The obtained post-nuclear supernatant was subjected to centrifugation at 22,500×g for 10 min to remove mitochondria and lysosomes. Finally, the microsomal fraction was obtained by centrifugation of the supernatant for 3 h at 32,000×g. The microsomal pellet fraction was taken up in PBS containing 5 mM DTT and divided into small aliquots, which were stored at −80° C. The microsomes were sonicated 3 times for 10 s at 8 Watt before each experiment.
The standard reaction mixture consisted of 100 mM potassium phosphate buffer pH 7.4 and rat liver microsomes (1 mg/ml end concentration) plus phytanic acid dissolved in DMSO (200 μM end concentration, unless indicated otherwise). Reactions were initiated by addition of NADPH at a final concentration of 1 mM. The final reaction volume was 0.2 ml. Reactions were terminated by addition of 0.2 ml 1 M HCl. […] The internal standard (IS, 10 nmol 3-hydroxyheptadecanoic acid in 20 μl ethanol) was added to this aqueous mixture. The samples were extracted twice with 6 ml ethylacetate-diethylether (1:1 v/v). The organic layer was collected and the solvents evaporated under vacuum using a rotary evaporator at room temperature. The residue was dissolved in 4 ml ethylacetate and further dried with MgSO4. After spinning down the MgSO4, the solution was transferred to 4 ml reaction vials and the solvent evaporated under nitrogen. […] TMS ester/ether formation was performed with 40 μl N,O-bis-(trimethylsilyl)trifluoroacetamide (BSTFA) containing 1% trimethylchlorosilane (TMCS) and 10 μl pyridine. The vials were sealed with a Teflon-lined screwcap and incubated at 80° C. for 1 hour. After the incubation the solution could be directly used for GC-MS analysis.
The identity of the substrate, the internal standard, and the reaction product(s) was verified by taking mass spectra of the pertrimethylsilylated derivatives in the scanning electron impact mode.
Based on the experiments described above, I selected the following assay conditions: 0,75 mg/ml methyl-beta-cyclodextrin, 100 mM potassium phosphate (pH 7.6), 1 mM NADPH, and 200 μM phytanic acid. Under these conditions, formation of omega-hydroxyphytanic acid was linear with time up to 60 min, and with protein up to 1 mg/ml (data not shown).
FIG. 4. […] Rat liver microsomes were incubated with phytanic acid in the presence of different concentrations of imidazole derivatives. The inhibitory effect of the imidazole derivatives on the formation of omega-hydroxyphytanic acid (omega-HPA; A) and (omega-1)-hydroxyphytanic acid (B) is shown. The data shown represent means of duplicate experiments.

[2] = tested on: phytanic acid (omega-1)-hydroxylase (cytochrome P450); experiment: in vitro; conditions: human, pH 7.7
Experimental: (§2) Reactions were initiated by adding NADPH (final concentration 1 mM) and terminated by addition of 0.1 ml 1 M HCl. […] After addition of the internal standard (IS, 2 nmol 3-hydroxyheptadecanoic acid in 20 μl ethanol) the samples were extracted twice with 6 ml ethylacetate-diethylether (1:1 v/v). The organic layers were collected and the solvents evaporated. The residue was dissolved in 4 ml ethylacetate and further dried with anhydrous MgSO4 and again evaporated. […] TMS ester/ether formation was performed by incubating the samples with 40 μl BSTFA containing 1% TMCS and 10 μl pyridine at 80° C. for 1 hour. After the incubation the solution was directly used for GC-MS analysis.
(§3) FIG. 7. […] Pooled human liver microsomes were incubated with phytanic acid in the presence of different concentrations of imidazole derivatives. […] The data shown represent means of duplicate experiments.

[3] = tested on: phytanic acid omega-hydroxylase (cytochrome P450) of pooled human liver microsomes; experiment: Phytanic acid omega-hydroxylation in pooled human liver microsomes (formation of omega-hydroxyphytanic acid, GC/MS); conditions: for effect on the formation of omega-hydroxyphytanic acid / Km: pooled human liver microsomes; for effect on the formation of omega-hydroxyphytanic acid: different concentrations of imidazole derivatives (FIG. 7A)
Experimental: as §2, §3

[4] = tested on: phytanic acid omega-hydroxylase (cytochrome P450); experiment: in vitro; conditions: human, pH 7.7
Experimental: as §2, §3

[5] = tested on: phytanic acid (omega-1)-hydroxylase (cytochrome P450) of rat liver microsomes; experiment: Phytanic acid (omega-1)-hydroxylation in rat liver microsomes (formation of (omega-1)-hydroxyphytanic acid, GC/MS); format: biochemical; conditions: different concentrations up to 100 μM (FIG. 4B)
Experimental: as §1
The standard reaction mixture consisted of 100 mM potassium phosphate buffer pH 7.4 and rat liver microsomes (1 mg/ml end concentration) plus phytanic acid dissolved in DMSO (200 μM end concentration, unless indicated otherwise). Reactions were initiated by addition of NADPH at a final concentration of 1 mM. The final reaction volume was 0.2 ml. Reactions were terminated by addition of 0.2 ml 1 M HCl. […]

SMILES | effect on the formation of omega-hydroxyphytanic acid [1] | IC50 [2] [µM] | effect on the formation of omega-hydroxyphytanic acid [3] | IC50 [4] [µM] | effect on the formation of (omega-1)-hydroxyphytanic acid [5] | further results
c1ccc(-c2ccc(C(c3ccccc3)n3ccnc3)cc2)cc1 (stereo not drawn) [Bifonazole] | most potent inhibitor | < 2 | inhibit product formation | 13 |  | 
Clc1ccccc1C(c1ccccc1)(c1ccccc1)n1ccnc1 [Clotrimazole] | inhibited | 3 | inhibit product formation | 43 | stimulatory effect at low concentrations with little inhibition at the highest concentrations used | 
CC(=O)N1CCN(c2ccc(OCC3COC(Cn4ccnc4)(c4ccc(Cl)cc4Cl)O3)cc2)CC1 (stereo not drawn) [Ketoconazole] | inhibited |  |  |  |  | 
Clc1ccc(COC(Cn2ccnc2)c2ccc(Cl)cc2Cl)c(Cl)c1 (stereo not drawn) [Miconazole] | inhibited | < 2 | inhibit product formation | 30 | most potent inhibitor | 
NC(=O)C1=CN([C@@H]2O[C@H](COP(=O)(O)OP(=O)(O)OC[C@H]3O[C@@H](n4cnc5c(N)ncnc54)[C@H](OP(=O)(O)O)[C@@H]3O)[C@@H](O)[C@H]2O)C=CC1 [NADPH] |  |  |  |  |  | Km ([1]; NADPH regenerating system, Lineweaver-Burke plot (FIG. 3C), read-out: apparent Km for NADPH): 35 µM; Km ([3]; read-out: Km for NADPH, NADPH-regenerating system, Lineweaver Burke plot (FIG. 6C), means of duplicate experiments): 2 µM
CC(C)CCCC(C)CCCC(C)CCCC(C)CC(=O)O (stereo not drawn) [phytanic acid, 3,7,11,15-tetramethylhexadecanoic acid] |  |  |  |  |  | Km ([1]; fixed molar ratio phytanic acid/methyl-beta-cyclodextrin (FIG. 3D), read-out: apparent Km for phytanic acid): 114 ± 9 µM; ratio omega:(omega-1) hydroxylated products ([1]; four separate experiments): 2.2±0.2; ratio omega:(omega-1) hydroxylated products ([3]; pooled human microsomes, four separate experiments): 15.4±0.7; Km ([3]; read-out: apparent Km for phytanic acid, estimated as substrate concentration with half maximal omega-hydroxylation activity (FIG. 6D)): 80 µM
